Measured values: patent EP0542807B1, “USE OF 2-PHENYL-1,2-BENZISOSELENAZOL-3(2H)-ONE” (RHONE-POULENC RORER GMBH, priority 1990, dated 1992)

What was measured:
[1] = tested on: LLC-PK1 cells; experiment: In-vitro toxicity of cisplatin in LLC-PK1 cells (LDH-leakage, protein remaining attached to the culture plate); type: cell-based, porcine
Experimental: LLC-PK1 are porcine kidney cells which express many characteristics of proximal tubule epithelium. […] In this cell line the LDH-leakage can be used as criterium for cell toxicity.
Cells were seeded in 24 well culture dishes ([…]) and allowed to grow to confluence (2.4 x 10^5 cell/cm^2) over 8 days in serum containing 5 % fetal calf serum. The cells were then maintained in serum-free medium for 2 days before drug treatment. Only monolayers in which dome formation occurred were used for the experiments.
Ebselen was dissolved in 2% dimethylsulfoxide in the sterile salt solution.
After incubation, the monolayers were washed 3 times with physiological saline to remove residual drug. Subsequently, the cells were grown in medium containing 5% fetal calf serum. Cell viability was assessed at different timepoints. In control experiments, monolayers were exposed to the vehicle in stead of drugs.
In control experiments, ebselen was replaced by the vehicle.

[2] = Histology of kidneys and retroperitoneal ganglionic tissue; type: in vivo, BALB/c mice; conditions: cisplatin alone versus cisplatin and ebselen given 1 h before
Experimental: Histology. Mice were sacrificed four days after treatment with cisplatin alone or Ebselen and cisplatin. Control groups were treated with Ebselen alone or the vehicle. Kidneys and livers were removed and processed for light microscopy. Sections of 6 um thickness were cut and stained in hematoxylin : eosin. All slides were examined without prior knowledge of the treatment given to the animal from which the specimen under investigation was taken.

[3] = tested on: MPC 11 tumor cells; experiment: Nephrotoxicity and antitumor activity in mice inoculated with MPC 11 tumor cells; type: in vivo, BALB/c mice; conditions: for T/C: T/C=MST treated/ MST control
Excerpt: (§1) Tumors. MPC 11 tumor cells were obtained from the institute of Pathology, University of Utrecht, The Netherlands. The MPC 11 tumor originated as a plasmacytoma, and was originally obtained from Dr. D. Catty, Birmingham, United Kingdom. The tumor cells were maintained by weekly passages in BALB/c mice. Freshly harvested ascitic cells were used in the experiments. Cells were counted with a hemocytometer. Transplantable Prima mammary tumor cells were obtained from the Radiobiological Institute TNO, Rijswijk, The Netherlands. The Prima tumor originated as a mammary carcinoma, induced by forced breeding in BALB/c mice bearing murine mammary tumor virus. The Prima tumor cell-line was cultured in vitro in standard Dulbecco's modification of Minimal Essential Medium (Gibco, Paisley, United Kingdom), supplemented with L-glutamine (500 mg/l), 2-mercapto-ethanol (60 umol/l) and 10% fetal calf serum (Flow Laboratories, Zwanenburg, The Netherlands).
(§2) Laboratory Animals. Female BALB/c mice were obtained from the Central Institute for the Breeding of Laboratory Animals/Harlan Sprague-Dawley (CPB/HSD), Zeist, The Netherlands. The mice were 8 weeks of age and weighed 18-20 g at the start of the experiments. All animals were provided with standard laboratory food (SRMA chow, Hope Farms, Woerden, The Netherlands) and water ad libitum.
(§3) Treatment. Animals were divided at random into groups of 8. […] Ebselen was dissolved in f a mixture of dimethylsulfoxide/polyethyleneglycol/physiological saline (1/4/20) and administered i.p. in a volume of 0.6 ml.
Evaluation of Antitumor Activity. […] Control groups were treated with ebselen or the vehicle. Mice were examined daily for occurrence of tumors. The experiments were terminated on Day 42 and median survival times (MSTs) were calculated.
(§4) Statistics. Student's test, unpaired, was used to evaluate the significance of differences between experimental groups. The level of significance was set at P < 0.05.

[4] = tested on: Prima breast tumor cells; experiment: Nephrotoxicity and antitumor activity in mice inoculated with Prima breast tumor cells; type: in vivo, BALB/c mice; conditions: for T/C Day 15: T/C = mean tumor weight treated/control mice; for Incidence of tumors Day 8: by palpation
Excerpt: as §1, §2, §3
Control groups were treated with ebselen or the vehicle. The occurrance of tumors was examined daily by palpation. The experiments were terminated on Day 15 when the tumors were excised and weighed.
as §4

[5] = Acute toxicity (LD0) in mice; type: in vivo; conditions: acute investigations
Experimental: (§5) Since, in contrast to the previously known and applied selenium compounds, Ebselen is low in toxicity (LD0 > 1000 mg/kg body weight in acute investigations in mice and rats) and the maximum doses to be administered lie greatly below this value, administration to patients can be regarded as being without danger.

[6] = Acute toxicity (LD0) in rats; type: in vivo; conditions: acute investigations
Experimental: as §5

[7] = Cisplatin-induced nephrotoxicity in mice (kidney function: BUN, serum creatinine); type: in vivo, BALB/c mice; conditions: for Effect on cisplatin-induced increase of BUN and serum creatinine: Day 4
Experimental: as §2, §3
Kidney Function. […] Blood samples were obtained from the retroorbital venous plexus in the mice.
as §4

[8] = design: species or system BALB/c mice; conditions: mouse, in vivo
Experimental: Kidney Function. […] Blood samples were obtained from the retroorbital venous plexus in the mice. Serum creatinine and BUN were measured daily in pilot studies (data not shown) and in more extensive studies at the time of maximally observed toxicity : Day 4.
Liver Function. […] Control groups were treated with ebselen or the vehicle.

[9] = Cisplatin 11.5 mg/kg alone, n=8

N.N.[Cl][Pt][Cl] [Cisplatin]
Time at which decrease in cell viability was first observed ([1]; cisplatin 0.4 mM for 1 h, time after termination of the incubation): 24 h | Damage to retroperitoneal ganglionic cells [2]: more pronounced | T/C ([3]; Cisplatin 4.0 mg/kg alone): 150% | Incidence of tumors Day 7 ([3]; Cisplatin 4.0 mg/kg alone, n=8): 100% | MST ([3]; Cisplatin 4.0 mg/kg alone, n=8): 24 ± 4 days | T/C ([3]; Cisplatin 6.5 mg/kg alone): 181% | Incidence of tumors Day 7 ([3]; Cisplatin 6.5 mg/kg alone, n=8): 100% | MST ([3]; Cisplatin 6.5 mg/kg alone, n=8): 29 ± 4 days | T/C ([3]; Cisplatin 9.0 mg/kg alone): >300% | Incidence of tumors Day 7 ([3]; Cisplatin 9.0 mg/kg alone, n=8): 0% | MST ([3]; Cisplatin 9.0 mg/kg alone, n=8): >30 days | T/C ([3]; Cisplatin 11.5 mg/kg alone): >300% | Incidence of tumors Day 7 [3, 9]: 0% | MST [3, 9]: >48 days | Incidence of tumors Day 7 ([3]; Cisplatin 14.5 mg/kg alone, n=8): 0% | T/C Day 15 ([4]; Cisplatin 6.5 mg/kg alone): 93% | Incidence of tumors Day 8 ([4]; Cisplatin 6.5 mg/kg alone): 100% | Mean tumor weight Day 15 ([4]; Cisplatin 6.5 mg/kg alone, n=8): 1.4 ± 0.2 g | T/C Day 15 ([4]; Cisplatin 9.0 mg/kg alone): 47% | Incidence of tumors Day 8 ([4]; Cisplatin 9.0 mg/kg alone): 0% | Mean tumor weight Day 15 ([4]; Cisplatin 9.0 mg/kg alone, n=8): 0.7 ± 0.4 g | T/C Day 15 ([4]; Cisplatin 11.5 mg/kg alone): 28% | Incidence of tumors Day 8 ([4]; Cisplatin 11.5 mg/kg alone): 0% | Mean tumor weight Day 15 [4, 9]: 0.42 ± 0.08 g | T/C Day 15 ([4]; Cisplatin 14.5 mg/kg alone): 7% | Incidence of tumors Day 8 ([4]; Cisplatin 14.5 mg/kg alone): 0% | Efficacy against the Prima mammary tumor ([4]; cisplatin 9.0 and 11.5 mg/kg): effective | Mice with tumors as assessed by palpation on Day 7 ([4]; cisplatin […] alone, n=8): None

O=c1c2ccccc2[se]n1-c1ccccc1 [Ebselen, 2-phenyl-1,2-benzisoselenazol-3(2H)-one]
LD0 [5]: > 1000 mg/kg body weight | LD0 [6]: > 1000 mg/kg body weight | Cell viability versus cells not pre-exposed (time course) ([1]; 10 uM Ebselen 1 h, then 0.4 mM cisplatin 1 h, whole period up till 72 h): significantly higher | Ebselen concentration of highest protection ([1]; pre-incubation 1 h before cisplatin, concentration-dependent): 15 µM | Protection from cisplatin-induced decrease in viability ([1]; pre-incubation with Ebselen 5-15 uM for 1 h, then 0.2 or 0.4 mM cisplatin 1 h, t = 72 h): protected the cells from a decrease in viability | Protection from cisplatin-induced decrease in viability ([1]; pre-incubation with ebselen, cisplatin 0.8 mM for 1 h): could not protect the cells against the decrease in viability | Effect on cisplatin-induced increase of BUN and serum creatinine ([7]; Ebselen 1 h before cisplatin 11.5 to 19.0 mg/kg): prevented the increase in levels of BUN and serum creatinine at all cisplatin doses tested with exception of the highest dose | Ebselen dose of maximal protection against cisplatin-induced nephrotoxicity ([7]; cisplatin 14.5 mg/kg, ebselen i.p. 1 h before): 10.0 mg/kg | Effect on cisplatin-induced increase of BUN and serum creatinine ([7]; ebselen 1 h after cisplatin): a protective effect against cisplatin-induced elevations of the levels of BUN and serum creatinine was also observed, but less marked | Functional liver- or kidney-damage [8]: did not cause functional liver- or kidney-damage | T/C ([3]; Ebselen 10.0 mg/kg alone): 106% | Incidence of tumors Day 7 ([3]; Ebselen 10.0 mg/kg alone, n=8): 100% | MST ([3]; Ebselen 10.0 mg/kg alone, n=8): 17 ± 2 days | Survival Day 7 ([3]; Ebselen 10.0 mg/kg alone, n=8): 100% | Influence on the antitumor activity of cisplatin ([3]; MPC 11 plasmacytoma, ebselen i.p. 1 h prior to cisplatin): did not reduce the antitumor activity of cisplatin | MST versus vehicle control ([3]; ebselen alone): identical to that of the control group | Influence on the antitumor activity of cisplatin ([4]; Ebselen 10 mg/kg 1 h before cisplatin): did not reduce the antitumor activity of cisplatin | Efficacy against the Prima tumor ([4]; Ebselen 10 mg/kg alone): not effective | T/C Day 15 ([4]; Ebselen 10.0 mg/kg alone): 100% | Incidence of tumors Day 8 ([4]; Ebselen 10.0 mg/kg alone): 100% | Mean tumor weight Day 15 ([4]; Ebselen 10.0 mg/kg alone, n=8): 1.5 ± 0.4 g | Survival Day 8 ([4]; Ebselen 10.0 mg/kg alone, n=8): 100%
